In patent US12538924B2, “Pesticidally active heterocyclic derivatives with sulfur containing substituents” (SYNGENTA CROP PROTECTION AG, priority 2019, dated 2026):

Columns and labels:
Assay type in all cases: in vivo
[1] = tested on: Bemisia tabaci (Cotton White Fly); assay: Bemisia tabaci (Cotton White Fly): Feeding/Contact Activity; details: foliar, 144 h, application rate of 200 ppm, adult white flies on sprayed cotton leaf discs, 6 days after incubation
Experimental: Example B1: Bemisia tabaci (Cotton White Fly): Feeding/Contact Activity
Cotton leaf discs were placed on agar in 24-well microtiter plates and sprayed with aqueous test solutions prepared from 10'000 ppm DMSO stock solutions. After drying the leaf discs were infested with adult white flies. The samples were checked for mortality 6 days after incubation.

[2] = tested on: Diabrotica Balteata (Corn Root Worm); assay: Diabrotica balteata (Corn Root Worm), sprayed maize sprouts; details: 96 h, application rate of 200 ppm, L2 larvae on sprayed maize sprouts, 4 days after infestation, read-out: effect in at least one of the two categories (mortality or growth inhibition)
Experimental: Example B2: Diabrotica Balteata (Corn Root Worm)
Maize sprouts placed onto an agar layer in 24-well microtiter plates were treated with aqueous test solutions prepared from 10'000 ppm DMSO stock solutions by spraying. After drying, the plates were infested with L2 larvae (6 to 10 per well). The samples were assessed for mortality and growth inhibition in comparison to untreated samples 4 days after infestation.

[3] = tested on: Plutella xylostella (Diamond Back Moth); assay: Plutella xylostella (Diamond Back Moth), treated artificial diet; details: 192 h, application rate of 200 ppm, eggs on treated artificial diet, 8 days after infestation, read-out: effect in at least one of the two categories (mortality or growth inhibition)
Experimental: Example B5: Plutella xylostella (Diamond Back Moth)
24-well microtiter plates with artificial diet were treated with aqueous test solutions prepared from 10'000 ppm DMSO stock solutions by pipetting. After drying, Plutella eggs were pipetted through a plastic stencil onto a gel blotting paper and the plate was closed with it. The samples were assessed for mortality and growth inhibition in comparison to untreated samples 8 days after infestation.

[4] = tested on: Myzus persicae (Green Peach Aphid); assay: Myzus persicae (Green Peach Aphid): Feeding/Contact Activity; details: foliar, 144 h, application rate of 200 ppm, aphid population of mixed ages on sprayed sunflower leaf discs, 6 days after infestation
Experimental: Example B6: Myzus persicae (Green Peach Aphid): Feeding/Contact Activity
Sunflower leaf discs were placed onto agar in a 24-well microtiter plate and sprayed with aqueous test solutions prepared from 10'000 ppm DMSO stock solutions. After drying, the leaf discs were infested with an aphid population of mixed ages. The samples were assessed for mortality 6 days after infestation.

[5] = tested on: Spodoptera littoralis (Egyptian Cotton Leaf Worm); assay: Spodoptera littoralis (Egyptian Cotton Leaf Worm), sprayed cotton leaf discs; details: foliar, 72 h, application rate of 200 ppm, L1 larvae on sprayed cotton leaf discs, 3 days after infestation, read-out: control (mortality, anti-feeding effect or growth inhibition)
Experimental: Example B8: Spodoptera littoralis (Egyptian Cotton Leaf Worm)
Cotton leaf discs were placed onto agar in 24-well microtiter plates and sprayed with aqueous test solutions prepared from 10'000 ppm DMSO stock solutions. After drying the leaf discs were infested with five L1 larvae. The samples were assessed for mortality, anti-feeding effect, and growth inhibition in comparison to untreated samples 3 days after infestation. Control of Spodoptera littoralis by a test sample is given when at least one of the categories mortality, anti-feedant effect, and growth inhibition is higher than the untreated sample.

[6] = tested on: Euschistus heros (Neotropical Brown Stink Bug); assay: Euschistus heros (Neotropical Brown Stink Bug), sprayed soybean leaves; details: 120 h, application rate of 200 ppm, N2 nymphs on sprayed soybean leaves, 5 days after infestation, read-out: effect in at least one of the two categories (mortality or growth inhibition)
Experimental: Example B3: Euschistus heros (Neotropical Brown Stink Bug)
Soybean leaves on agar in 24-well microtiter plates were sprayed with aqueous test solutions prepared from 10'000 ppm DMSO stock solutions. After drying the leaves were infested with N2 nymphs. The samples were assessed for mortality and growth inhibition in comparison to untreated samples 5 days after infestation.

[7] = tested on: Myzus persicae (Green Peach Aphid); assay: Myzus persicae (Green Peach Aphid): Systemic Activity; details: 144 h, test rate of 24 ppm, roots of infested pea seedlings placed into test solutions, 6 days
Experimental: Example B7: Myzus persicae (Green Peach Aphid): Systemic Activity
Roots of pea seedlings infested with an aphid population of mixed ages were placed directly into aqueous test solutions prepared from 10'000 DMSO stock solutions. The samples were assessed for mortality 6 days after placing seedlings into test solutions.

CCS(=O)(=O)c1cc(Br)cnc1N1Cc2cnc(C(F)(F)F)cc2C1=O [Compound P7, 2-(5-bromo-3-ethylsulfonyl-2-pyridyl)-6-(trifluoromethyl)-3H-pyrrolo[3,4-c]pyridin-1-one]
≥ 80%: mortality at 200 ppm [1] | percent effect (mortality or growth inhibition) at 200 ppm [2] | percent effect (mortality or growth inhibition) at 200 ppm [3] | mortality at 200 ppm [4] | percent control (mortality, anti-feedant effect or growth inhibition) at 200 ppm [5]

CCS(=O)(=O)c1cc(C2CC2)cnc1N1Cc2cnc(C(F)(F)F)cc2C1=O [Compound P14, 2-(5-cyclopropyl-3-ethylsulfonyl-2-pyridyl)-6-(trifluoromethyl)-3H-pyrrolo[3,4-c]pyriclin-1-one]
≥ 80%: percent effect (mortality or growth inhibition) at 200 ppm [2] | percent effect (mortality or growth inhibition) at 200 ppm [6] | percent effect (mortality or growth inhibition) at 200 ppm [3] | mortality at 200 ppm [4] | mortality at 24 ppm [7] | percent control (mortality, anti-feedant effect or growth inhibition) at 200 ppm [5]

CCS(=O)(=O)c1ccc(C2CC2)nc1N1Cc2cnc(C(F)(F)F)cc2C1=O [Compound P15, 2-(6-cyclopropyl-3-ethylsulfonyl-2-pyridyl)-6-(trifluoromethyl)-3H-pyrrolo[3,4-c]pyriclin-1-one]
≥ 80%: percent effect (mortality or growth inhibition) at 200 ppm [2] | percent effect (mortality or growth inhibition) at 200 ppm [6] | percent effect (mortality or growth inhibition) at 200 ppm [3] | mortality at 200 ppm [4] | mortality at 24 ppm [7] | percent control (mortality, anti-feedant effect or growth inhibition) at 200 ppm [5]

CCS(=O)(=O)c1ccc(-c2ncccn2)nc1N1Cc2cnc(C(F)(F)F)cc2C1=O [Compound P16, 2-(3-ethylsulfonyl-6-pyrimidin-2-yl-2-pyridyl)-6-(trifluoromethyl)-3H-pyrrolo[3,4-c]pyriclin-1-one]
≥ 80%: percent effect (mortality or growth inhibition) at 200 ppm [2] | percent effect (mortality or growth inhibition) at 200 ppm [6] | percent effect (mortality or growth inhibition) at 200 ppm [3] | mortality at 200 ppm [4] | mortality at 24 ppm [7] | percent control (mortality, anti-feedant effect or growth inhibition) at 200 ppm [5]

CCS(=O)(=O)c1ccc(N2CCOC2=O)nc1N1Cc2cnc(C(F)(F)F)cc2C1=O [Compound P17, 3-[5-ethylsulfonyl-6-[1-oxo-6-(trifluoromethyl)-3H-pyrrolo[3,4-c]pyridin-2-yl]-2-pyridyl]oxazolidin-2-one]
≥ 80%: percent effect (mortality or growth inhibition) at 200 ppm [2] | percent effect (mortality or growth inhibition) at 200 ppm [3] | mortality at 200 ppm [4] | mortality at 24 ppm [7] | percent control (mortality, anti-feedant effect or growth inhibition) at 200 ppm [5]

CCC(=O)N(C)c1ccc(S(=O)(=O)CC)c(N2Cc3cnc(C(F)(F)F)cc3C2=O)n1 [Compound P19, N-[5-ethylsulfonyl-6-[1-oxo-6-(trifluoromethyl)-3H-pyrrolo[3,4-c]pyridin-2-yl]-2-pyridyl]-N-methyl-propanamide]
≥ 80%: percent effect (mortality or growth inhibition) at 200 ppm [2] | percent effect (mortality or growth inhibition) at 200 ppm [6] | percent effect (mortality or growth inhibition) at 200 ppm [3] | mortality at 200 ppm [4] | mortality at 24 ppm [7] | percent control (mortality, anti-feedant effect or growth inhibition) at 200 ppm [5]

CCS(=O)(=O)c1ccc(N(C)C(C)=O)nc1N1Cc2cnc(C(F)(F)F)cc2C1=O [Compound P20, N-[5-ethylsulfonyl-6-[1-oxo-6-(trifluoromethyl)-3H-pyrrolo[3,4-c]pyridin-2-yl]-2-pyridyl]-N-methyl-acetamide]
≥ 80%: percent effect (mortality or growth inhibition) at 200 ppm [2] | percent effect (mortality or growth inhibition) at 200 ppm [6] | percent effect (mortality or growth inhibition) at 200 ppm [3] | mortality at 200 ppm [4] | mortality at 24 ppm [7] | percent control (mortality, anti-feedant effect or growth inhibition) at 200 ppm [5]

CCS(=O)(=O)c1cccnc1N1Cc2ccc(C(F)(F)F)cc2C1=O [Compound P21, 2-(3-ethylsulfonyl-2-pyridyl)-6-(trifluoromethyl)isoindolin-1-one]
≥ 80%: mortality at 200 ppm [1] | percent effect (mortality or growth inhibition) at 200 ppm [2] | percent effect (mortality or growth inhibition) at 200 ppm [6] | percent effect (mortality or growth inhibition) at 200 ppm [3] | mortality at 200 ppm [4] | mortality at 24 ppm [7] | percent control (mortality, anti-feedant effect or growth inhibition) at 200 ppm [5]

CCS(=O)(=O)c1cccnc1N1Cc2ncc(C(F)(F)F)cc2C1=O [Compound P22, 6-(3-ethylsulfonyl-2-pyridyl)-3-(trifluoromethyl)-7H-pyrrolo[3,4-b]pyridin-5-one]
≥ 80%: percent effect (mortality or growth inhibition) at 200 ppm [2] | percent effect (mortality or growth inhibition) at 200 ppm [3] | mortality at 200 ppm [4] | mortality at 24 ppm [7] | percent control (mortality, anti-feedant effect or growth inhibition) at 200 ppm [5]

CCS(=O)(=O)c1cccnc1N1Cc2ccc(OC(F)(F)F)cc2C1=O [Compound P24, 2-(3-ethylsulfonyl-2-pyridyl)-6-(trifluoromethoxy)isoindolin-1-one]
≥ 80%: percent effect (mortality or growth inhibition) at 200 ppm [2] | percent effect (mortality or growth inhibition) at 200 ppm [3] | mortality at 200 ppm [4] | percent control (mortality, anti-feedant effect or growth inhibition) at 200 ppm [5]

CCS(=O)(=O)c1cc(C2(C#N)CC2)cnc1N1Cc2ccc(OC(F)(F)F)cc2C1=O [Compound P25, 1-[5-ethylsulfonyl-6-[1-oxo-6-(trifluoromethoxy)isoindolin-2-yl]-3-pyridyl]cyclopropanecarbonitrile]
≥ 80%: mortality at 200 ppm [1] | percent effect (mortality or growth inhibition) at 200 ppm [2] | percent effect (mortality or growth inhibition) at 200 ppm [6] | percent effect (mortality or growth inhibition) at 200 ppm [3] | mortality at 200 ppm [4] | percent control (mortality, anti-feedant effect or growth inhibition) at 200 ppm [5]

CCS(=O)(=O)c1cc(C2(C#N)CC2)cnc1N1Cc2ccc(C(F)(F)F)cc2C1=O [Compound P26]
≥ 80%: mortality at 200 ppm [1] | percent effect (mortality or growth inhibition) at 200 ppm [2] | percent effect (mortality or growth inhibition) at 200 ppm [6] | percent effect (mortality or growth inhibition) at 200 ppm [3] | mortality at 200 ppm [4] | percent control (mortality, anti-feedant effect or growth inhibition) at 200 ppm [5]

CCS(=O)(=O)c1cc(C(C)(C)C#N)cnc1N1Cc2ncc(C(F)(F)F)cc2C1=O [Compound P27, 2-[5-ethylsulfonyl-6-[5-oxo-3-(trifluoromethyl)-7H-pyrrolo[3,4-b]pyridin-6-yl]-3-pyridyl]-2-methyl-propanenitrile]
≥ 80%: mortality at 200 ppm [1] | percent effect (mortality or growth inhibition) at 200 ppm [2] | percent effect (mortality or growth inhibition) at 200 ppm [3] | mortality at 24 ppm [7] | percent control (mortality, anti-feedant effect or growth inhibition) at 200 ppm [5]
